IC50 data for 34 substances are collected here from patent US8653096B2, “Chemokine receptor antagonists and methods of use thereof” (Millennium Pharmaceuticals, Inc., priority 2001, dated 2014).

pIC50: −log10 of the molar value. Some results are limits rather than exact numbers.

What is called pIC50 is −log10 of the IC50, conventionally taken in molar units.

The target of this assay is T1, RANTES/MIP-1α chemokine receptor (CCR1) in THP-1 cell membranes (Homo sapiens, UniProt P32246).
T1 construct: Membranes were prepared from THP-1 cells (ATCC #TIB202); host or cells: THP-1 cells (membrane preparation)
T1 sequence (P32246 1-355): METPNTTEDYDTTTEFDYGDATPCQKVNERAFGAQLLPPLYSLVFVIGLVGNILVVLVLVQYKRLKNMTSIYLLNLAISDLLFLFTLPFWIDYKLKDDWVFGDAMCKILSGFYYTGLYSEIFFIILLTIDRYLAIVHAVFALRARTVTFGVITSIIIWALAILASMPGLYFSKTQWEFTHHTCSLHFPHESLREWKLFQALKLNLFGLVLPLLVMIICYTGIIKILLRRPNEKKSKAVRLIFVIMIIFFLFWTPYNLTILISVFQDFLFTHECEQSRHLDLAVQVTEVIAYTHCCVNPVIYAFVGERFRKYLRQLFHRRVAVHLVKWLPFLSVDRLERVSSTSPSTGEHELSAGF
Briefly: Receptor binding assay: 125I-RANTES or 125I-MIP-1α binding to THP-1 cell membranes. As to conditions: inhibitor concentration required for 50% inhibition of specific binding; 125I-RANTES or 125I-MIP-1α as ligand, THP-1 cell membranes; read-out: IC50. As to the method: Membranes were prepared from THP-1 cells (ATCC #TIB202). Cells were harvested by centrifugation, washed twice with PBS (phosphate-buffered saline), and the cell pellets were frozen at −70 to −85° C. The frozen pellet was thawed in ice-cold lysis buffer consisting of 5 mM HEPES (N-2-hydroxyethylpiperazine-N′-2-ethane-sulfonic acid) pH 7.5, 2 mM EDTA (ethylenediaminetetraacetic acid), 5 μg/ml each aprotinin, leupeptin, and chymostatin (protease inhibitors), and 100 μg/ml PMSF (phenyl methane sulfonyl fluoride—also a protease inhibitor), at a concentration of 1 to 5×10^7 cells/ml. This procedure results in cell lysis. The suspension was mixed well to resuspend all of the frozen cell pellet. Nuclei and cell debris were removed by centrifugation of 400×g for 10 minutes at 4° C. The supernatant was transferred to a fresh tube and the membrane fragments were collected by centrifugation at 25,000×g for 30 minutes at 4° C. The supernatant was aspirated and the pellet was resuspended in freezing buffer consisting of 10 mM HEPES pH 7.5, 300 mM sucrose, 1 μg/ml each aprotinin, leupeptin, and chymostatin, and 10 μg/ml PMSF (approximately 0.1 ml per each 10^8 cells). All clumps were resolved using a minihomogenizer, and the total protein concentration was determined using a protein assay kit (Bio-Rad, Hercules, Calif., cat #500-0002). The membrane solution was then aliquoted and frozen at −70 to −85° C. until needed.
Binding Assays utilized the membranes described above. […] The binding reactions were performed in 60 to 100 μl of a binding buffer consisting of 10 mM HEPES pH 7.2, 1 mM CaCl2, 5 mM MgCl2, and 0.5% BSA (bovine serum albumin), for 60 min at room temperature. The binding reactions were terminated by harvesting the membranes by rapid filtration through glass fiber filters (GF/B or GF/C, Packard) which were presoaked in 0.3% polyethyleneimine. The filters were rinsed with approximately 600 μl of binding buffer containing 0.5 M NaCl, dried, and the amount of bound radioactivity was determined by scintillation counting in a Topcount beta-plate counter.
Specific binding is defined as the total binding minus the non-specific binding; non-specific binding is the amount of cpm still detected in the presence of excess unlabeled Rantes or MIP-1α.
For the substance “1-{3-[7-(1-Hydroxy-1-methyl-ethyl)-11H-10-oxa-1-aza-dibenzo[a,d]cyclohepten-5-ylidene]-propyl}-4-phenyl-piperidin-4-ol [Example 488]”, the pIC50 is more than 6.00. Then “1′-[3-(5,11-Dihydro-7-methoxy[1]benzoxepino[2,3-b]pyridin-5-ylidene)propyl]spiro[isobenzofuran-1(3H), 4′-piperidine] [Example 90]”, with more than 6.00. Then “4-(2-Chlorophenyl)-1-[3-(5,11-dihydro-7-methoxy[1]benzoxepino[2,3-b]pyridin-5-ylidene)propyl]piperidin-4-ol [Example 76]”, with more than 5.00; and “4-(3,4-Dichlorophenyl)-1-[3-(5,11-dihydro-7-methoxy[1]benzoxepino[2,3-b]pyridin-5-ylidene)propyl]piperidin-4-ol [Example 79]”, with more than 6.00. Then “4-(3,4-difluorophenyl)-1-[3-(5,11-dihydro-7-methoxy[1]benzoxepino[2,3-b]pyridin-5-ylidene)propyl]piperidin-4-ol [Example 144]”, with more than 6.00; and “4-(3,5-dichlorophenyl)-1-[3-(5,11-dihydro-7-methoxy[1]benzoxepino[2,3-b]pyridin-5-ylidene)propyl]piperidin-4-ol [Example 146]”, with less than 5.00.

Consider “4-(3-Chlorophenyl)-1-[3-(5,11-dihydro-7-methoxy[1]benzoxepino[2,3-b]pyridin-5-ylidene)propyl]piperidin-4-ol [Example 75]”, for which the pIC50 was more than 5.00. For the substance “4-(4-Bromophenyl)-1-[3-(5,11-dihydro-7-methoxy[1]benzoxepino[2,3-b]pyridin-5-ylidene)propyl]piperidin-4-ol [Example 60]”, the negative logarithm of the IC50 (pIC50) was more than 6.00. On to “4-(4-Chlorophenyl)-1-[3-(5,11-dihydro [1]benzoxepino[2,3-b]pyridin-5-ylidene)propyl]piperidin-4-ol [Example 53]”, for which the negative-log IC50 (pIC50) is more than 6.00. Then “4-(4-Chlorophenyl)-1-[3-(5,11-dihydro-7-(1-butoxy)carbonyl-[1]benzoxepino[2,3-b]pyridin-5-ylidene) propyl]piperidine-4-ol [Example 427]”, with more than 6.00; and “4-(4-Chlorophenyl)-1-[3-(5,11-dihydro-7-(1-cyclohexyloxycarbonyloxy)ethyloxycarbonyl[1]benzoxepino[2,3-b]pyridin-5-ylidene)propyl]piperidin-4-ol dihydrochloride [Example 306]”, with more than 6.00. On to “4-(4-Chlorophenyl)-1-[3-(5,11-dihydro-7-(1-ethoxycarbonyl-1-methylethyl)oxy[1]benzoxepino[2,3-b]pyridin-5-ylidene)propyl]piperidin-4-ol [Example 138]”, for which the pIC50 was more than 6.00. Then “4-(4-Chlorophenyl)-1-[3-(5,11-dihydro-7-(1-ethoxycarbonyl-1-methylethyl)oxy[1]benzoxepino[2,3-b]pyridin-5-ylidene)propyl]piperidine [Example 158]”, with more than 6.00.

Regarding “4-(4-Chlorophenyl)-1-[3-(5,11-dihydro-7-(1-piperidino)methyl[1]benzoxepino[2,3-b]pyridin-5-ylidene)propyl]piperidin-4-ol [Example 277]”, the pIC50 is more than 6.00. Then “4-(4-Chlorophenyl)-1-[3-(5,11-dihydro-7-(1-propoxy)carbonyl-[1]benzoxepino[2,3-b]pyridin-5-ylidene) propyl]piperidine-4-ol [Example 426]”, with more than 6.00; and “4-(4-Chlorophenyl)-1-[3-(5,11-dihydro-7-(1-pyrrolidino)methyl [1]benzoxepino[2,3-b]pyridin-5-ylidene)propyl]piperidin-4-ol [Example 279]”, with more than 6.00; and “4-(4-Chlorophenyl)-1-[3-(5,11-dihydro-7-(2,3-dihydroxy)propyl[1]benzoxepino[2,3-b]pyridin-5-ylidene)propyl]piperidin-4-ol [Example 290]”, with more than 6.00. Then “4-(4-Chlorophenyl)-1-[3-(5,11-dihydro-7-(2-hydroxy)ethyl[1]benzoxepino[2,3-b]pyridin-5-ylidene)propyl]piperidin-4-ol [Example 280]”, with more than 6.00; and “4-(4-Chlorophenyl)-1-[3-(5,11-dihydro-7-(2-hydroxyethyl)oxy[1]benzoxepino[2,3-b]pyridin-5-ylidene)propyl]piperidin-4-ol [Example 51]”, with more than 6.00. Then “4-(4-Chlorophenyl)-1-[3-(5,11-dihydro-7-(2-morpholinoethyl)oxy[1]benzoxepino[2,3-b]pyridin-5-ylidene)propyl]piperidin-4-ol [Example 52]”, with more than 6.00.

Consider “4-(4-Chlorophenyl)-1-[3-(5,11-dihydro-7-(2-propoxy)carbonyl-[1]benzoxepino[2,3-b]pyridin-5-ylidene) propyl]piperidine-4-ol [Example 428]”, for which the negative logarithm of the IC50 (pIC50) is more than 6.00.

Turning to “4-(4-Chlorophenyl)-1-[3-(5,11-dihydro-7-(ethoxycarbonylmethyl)-oxycarbonyl-[1]benzoxepino[2,3-b]pyridin-5-ylidene) propyl]piperidine-4-ol [Example 424]”, the pIC50 was more than 6.00. Then “4-(4-Chlorophenyl)-1-[3-(5,11-dihydro-7-cyclohexyloxycarbonyl-[1]benzoxepino[2,3-b]pyridin-5-ylidene)propyl]piperidine-4-ol [Example 425]”, with more than 6.00; and “4-(4-Chlorophenyl)-1-[3-(5,11-dihydro-7-cyclopentyl-oxycarbonyl-[1]benzoxepino[2,3-b]pyridin-5-ylidene) propyl]piperidine-4-ol [Example 429]”, with more than 6.00; and “4-(4-Chlorophenyl)-1-[3-(5,11-dihydro-7-dimethylaminocarbonylmethyloxy[1]benzoxepino[2,3-b]pyridin-5-ylidene)propyl]piperidin-4-ol [Example 134]”, with more than 6.00. Then “4-(4-Chlorophenyl)-1-[3-(5,11-dihydro-7-dimethylaminocarbonylmethyloxy[1]benzoxepino[2,3-b]pyridin-5-ylidene)propyl]piperidine [Example 155]”, with more than 6.00. Then “4-(4-Chlorophenyl)-1-[3-(5,11-dihydro-7-ethoxy [1]benzoxepino[2,3-b]pyridin-5-ylidene)propyl]piperidin-4-ol [Example 46]”, with more than 6.00. Regarding “4-(4-Chlorophenyl)-1-[3-(5,11-dihydro-7-ethoxy[1]benzoxepino[2,3-b]pyridin-5-ylidene)propyl]piperidine [Example 152]”, the negative-log IC50 (pIC50) is more than 6.00. Then “4-(4-Chlorophenyl)-1-[3-(5,11-dihydro-7-ethoxycarbonyl-[1]benzoxepino[2,3-b]pyridin-5-ylidene) propyl]piperidine-4-ol [Example 423]”, with more than 6.00; and “4-(4-Chlorophenyl)-1-[3-(5,11-dihydro-7-ethoxycarbonylmethyloxy[1]benzoxepino[2,3-b]pyridin-5-ylidene)propyl]piperidin-4-ol [Example 48]”, with more than 6.00. Take “4-(4-Chlorophenyl)-1-[3-(5,11-dihydro-7-ethyl[1]benzoxepino[2,3-b]pyridin-5-ylidene)propyl]piperidin-4-ol [Example 163]”: the pIC50 is more than 6.00. Then “4-(4-Chlorophenyl)-1-[3-(5,11-dihydro-7-hydroxy [1]benzoxepino[2,3-b]pyridin-5-ylidene)propyl]piperidin-4-ol [Example 44]”, with more than 6.00. For “4-(4-Chlorophenyl)-1-[3-(5,11-dihydro-7-hydroxy[1]benzoxepino[2,3-b]pyridin-5-ylidene)propyl]piperidine [Example 151]”, the negative-log IC50 (pIC50) is more than 6.00.

In the case of “4-(4-Chlorophenyl)-1-[3-(5,11-dihydro-7-isopropoxy[1]benzoxepino[2,3-b]pyridin-5-ylidene)propyl]piperidin-4-ol [Example 47]”, the pIC50 was more than 6.00.
